The results in this text go back to patent publication US7271173B2, “Mixed kappa/mu opioids and uses thereof” (The McLean Hospital Corporation, priority 2002, dated 2007).

One experiment concerns the target T1, human mu opioid receptor (Homo sapiens, UniProt P35372).
T1 construct: expressed in transfected cells; host or cells: CHO cells, stably transfected
As to the kind of experiment: Radioligand binding, [3H]DAMGO (μ), CHO membranes. The source says:
(§1) Compounds can be characterized in radioligand receptor binding assays, using ligands that are specific for the mu, delta and kappa receptors. The binding assays may utilize guinea pig brain membranes or stably transfected Chinese Hamster Ovary (CHO) cells expressing each of the three opioid receptors. Membranes can be isolated from CHO cells that stably express either the human mu, delta or kappa opioid receptors. At approximately 80% confluence, the cells are harvested by the use of a cell scraper. The cells and media from the plates are centrifuged at 200×g for 10 mm at 4° C.; resuspended in 50 mM Tris-HCl, pH 7.5; homogenized by the use of a Polytron; centrifuged at 48,000×g for 20 mm at 4° C.; and resuspended in 50 mM Tris-HCl, pH 7.5, at a protein concentration of 5-10 mg/ml, as determined by the Bradford method. The membranes are stored frozen, at −80° C. until use.
(§2) Cell membranes are incubated at 25° C. with the radiolabeled ligands in a final volume of 1 ml of 50 mM Tris-HCl, pH 7.5. […] Nonspecific binding is measured by inclusion of 1 μM naloxone. The binding can be terminated by filtering the samples through Schleicher & Scheull No. 32 glass fiber filters using a Brandel 48-well cell harvester. The filters are subsequently washed three times with 3 ml of cold 50 mM Tris-HCl, pH 7.5, and can be counted in 2 ml of Ecoscint A scintillation fluid. For [^3H]U69,593 binding, the filters are soaked in 0.1% polyethylenimine for at least 30 minutes before use. IC50 values can be calculated by a least squares fit to a logarithm-probit analysis. Ki values of unlabeled compounds are calculated from the equation Ki=(IC50)/1+S where S=(concentration of radioligand) (Kd of radioligand). Cheng and Prusoff, Biochem. Pharmacol. 22:3099 (1973). Alternatively, guinea pig brain membranes can be prepared and used as previously described in Neumeyer, et al., J. Med. Chem. 43:114 (2000).
(§3) As described in Example 12, 0.5 milligrams of protein per sample was incubated with 12 different concentrations of the compounds in the presence of receptor-specific radioligands at 25° C. in a final volume of 1 mL (50 mM Tris-HCl buffer, pH 7.5). Nonspecific binding was determined using 10 μM naloxone. The data in Table 1 are the mean values SEM from three experiments performed in triplicate.
(§4) Four 10-ketomorphinan compounds, see Table 2, were evaluated for their affinity and selectivity at the three opioid receptors. As described in Example 12, 0.5 milligrams of protein per sample was incubated with 12 different concentrations of the compounds in the presence of receptor-specific radioligands at 25° C. in a final volume of 1 mL (50 mM Tris-HCl buffer, pH 7.5). Nonspecific binding was determined using 10 μM naloxone. The data in Table 2 are the mean values SEM from three experiments performed in triplicate.

Experiment [1] has as its target T2, human kappa opioid receptor (Homo sapiens, UniProt P41145).
T2 construct: expressed in transfected cells; host or cells: CHO cells, stably transfected
The experiment is described as follows: Radioligand binding, [3H]U69,593 (κ), CHO membranes. Particulars: for Selectivity δ:κ / Selectivity μ:κ: ratio of Ki values.
Source text: as §1, §2, §3, §4

Experiment [2] deals with T3, human delta opioid receptor (Homo sapiens, UniProt P41143).
T3 construct: expressed in transfected cells; host or cells: CHO cells, stably transfected
T3 sequence (P41143 whole entry): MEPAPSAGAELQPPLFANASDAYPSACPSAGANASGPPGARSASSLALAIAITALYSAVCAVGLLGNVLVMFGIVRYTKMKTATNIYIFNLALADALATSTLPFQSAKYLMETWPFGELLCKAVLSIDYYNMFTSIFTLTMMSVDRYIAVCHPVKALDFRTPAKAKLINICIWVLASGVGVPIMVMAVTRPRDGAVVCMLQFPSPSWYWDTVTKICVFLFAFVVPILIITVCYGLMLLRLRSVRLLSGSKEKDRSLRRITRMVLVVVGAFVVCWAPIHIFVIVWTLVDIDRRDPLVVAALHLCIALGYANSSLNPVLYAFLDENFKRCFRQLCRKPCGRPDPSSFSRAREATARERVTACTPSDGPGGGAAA
The experiment is described as follows: Radioligand binding, [3H]naltrindole (δ), CHO membranes.
Source text: as §1, §2, §3, §4

The next experiment has as its target T4, kappa receptor (Homo sapiens, UniProt P41145).
T4 construct: expressed in transfected cells; host or cells: CHO cell lines
As to the kind of experiment: [35S]GTPgammaS binding assay, kappa receptor. The experiment is classed as biochemical. Particulars: CHO membranes. As to the method: (§5) Membranes from the CHO cell lines, expressing either the mu, delta or kappa receptor, are incubated with 12 concentrations of each opioid for 60 minutes at 30° C. in a final volume of 0.5 ml of assay buffer (50 mM Tris-HCl, 3 mM MgCl2, 0.2 mM EGTA, 100 mM NaCl, pH 7.5) containing 3 μM GDP and 0.08 nM [^35S]GTPgammaS. Basal binding can be determined in the presence of GDP and the absence of opioids, and nonspecific binding can be determined by including 10 μM unlabeled […]. The incubation can be terminated by filtration under vacuum through glass fiber filters, followed by three washes with 3 ml ice-cold 50 mM Tris-HCl, pH 7.5. Samples can be allowed to equilibrate overnight and can be counted in 2 ml Ecoscint A scintillation fluid for 2 minutes in a liquid scintillation counter.
(§6) For [^35S]GTPgammaS binding assays, percent stimulation of [^35S]GTPgammaS binding is defined as [(opioid-stimulated binding-basal binding) basal binding]×100. Percent stimulation is plotted as a function of opioid concentration (log scale), and EC50 and Emax values are determined by linear regression analysis. All data is compared across conditions using ANOVA and non-paired two-tailed Student's tests.

In the next experiment the target is T5, mu receptor (Homo sapiens, UniProt P35372).
T5 construct: expressed in transfected cells; host or cells: CHO cell lines
T5 sequence (P35372 whole entry): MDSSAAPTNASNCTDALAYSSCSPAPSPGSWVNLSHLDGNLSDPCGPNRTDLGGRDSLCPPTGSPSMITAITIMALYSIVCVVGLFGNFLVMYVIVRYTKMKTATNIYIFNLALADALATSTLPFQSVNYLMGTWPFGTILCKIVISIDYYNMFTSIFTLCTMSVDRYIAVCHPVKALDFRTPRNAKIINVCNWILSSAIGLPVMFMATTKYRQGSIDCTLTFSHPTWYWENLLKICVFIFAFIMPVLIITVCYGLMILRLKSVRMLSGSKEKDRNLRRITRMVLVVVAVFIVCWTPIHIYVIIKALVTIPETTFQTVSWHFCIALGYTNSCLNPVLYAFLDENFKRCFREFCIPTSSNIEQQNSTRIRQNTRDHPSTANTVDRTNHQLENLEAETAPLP
As to the kind of experiment: [35S]GTPgammaS binding assay, mu receptor. The experiment is classed as biochemical. The note with it: CHO membranes. As to the method: as §5, §6

Where [3] appears, read: read-out: Ki (nM) ± SE [3H]DAMGO (μ), Table 1, CHO membranes, 25° C., mean ± SEM of three experiments in triplicate.
Setting [4] is: Table 1, CHO membranes, 25° C., mean ± SEM of three experiments in triplicate, read-out: Ki (nM) ± SE [3H]U69,593 (κ).
Where [5] appears, read: read-out: Ki (nM) ± SE [3H]Naltrindole (δ), Table 1, CHO membranes, 25° C., mean ± SEM of three experiments in triplicate.
[6] abbreviates: Table 1, CHO membranes, 25° C., mean ± SEM of three experiments in triplicate.
[7] abbreviates: read-out: Ki (nM) ± SE [3H]Naltrindole (δ), Table 2, CHO membranes, 25° C., mean ± SEM of three experiments in triplicate.

Read-outs that look alike come from different tables or passages of the source.

T2 sequence (P41145 whole entry): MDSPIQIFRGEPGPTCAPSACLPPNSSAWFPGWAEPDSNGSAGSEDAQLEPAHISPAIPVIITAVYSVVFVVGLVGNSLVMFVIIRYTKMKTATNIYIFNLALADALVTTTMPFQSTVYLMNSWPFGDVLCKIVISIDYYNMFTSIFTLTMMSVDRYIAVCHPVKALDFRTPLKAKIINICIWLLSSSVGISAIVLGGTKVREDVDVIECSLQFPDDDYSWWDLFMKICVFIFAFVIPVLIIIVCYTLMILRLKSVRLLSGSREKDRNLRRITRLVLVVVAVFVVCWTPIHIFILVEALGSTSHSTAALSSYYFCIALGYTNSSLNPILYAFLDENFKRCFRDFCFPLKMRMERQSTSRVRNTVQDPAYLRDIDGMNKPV
T4 sequence (P41145 whole entry): as above
T1 sequence (P35372 whole entry): as the sequence (P35372 whole entry) above

Consider `CN1CC[C@]23CCCC[C@H]2[C@H]1Cc1cc2sc(N)nc2cc13` [Compound 69], for which the values for the Ki (on human mu opioid receptor (setting [3]); in experiment [1] (setting [4]); in experiment [2] (setting [5])) were 130 ± 5.8 nM, 29 nM and 1100 ± 30 nM, respectively. Moreover, in experiment [1] (Table 1), the “Selectivity δ:κ” value is listed as 38. Moreover, in experiment [1] (Table 1), the “Selectivity μ:κ” value was determined as 4.5.

For the compound `CN1CC[C@]23CCCC[C@H]2[C@H]1Cc1c3ccc2nc(N)sc12` [Compound 70], the inhibition constant (Ki) stood at 1.1 ± 0.13 nM at human mu opioid receptor (setting [6]), 6.4 ± 0.53 nM in experiment [1] (setting [4]) and 190 ± 9.7 nM in experiment [2] (setting [6]). In addition, the “Selectivity δ:κ” value in experiment [1] (Table 1) is given as 30. In addition, the “Selectivity μ:κ” value in experiment [1] (Table 1) was found to be 0.17.

For `Nc1nc2cc3c(cc2s1)C[C@@H]1[C@@H]2CCCC[C@]32CCN1CC1CC1` [Compound 71], the Ki at human mu opioid receptor (setting [3]) was determined as 1.5 ± 0.21 nM. The inhibitory constant (Ki) in experiment [1] (setting [4]) was found to be 0.049 ± 0.0046 nM. In experiment [1] (Table 1), the “Selectivity δ:κ” value is reported as 590 and the “Selectivity μ:κ” value is on record as 30. In addition, at kappa receptor, the “Efficacy (agonist, partial agonist, antagonist) at κ receptor” value was “κ and μ agonist”; the “Relative potency κ versus μ” value is reported as “more potent at κ than at μ”. For the same compound, the inhibition constant Ki in experiment [2] (setting [5]) is 29 ± 2 nM. The “Efficacy (agonist, partial agonist, antagonist) at μ receptor” value on mu receptor is “κ and μ agonist”.

For the compound `Nc1nc2cc3c(cc2s1)C[C@@H]1[C@@H]2CCCC[C@]32CCN1CC1CCC1` [Compound 72], the inhibitory constant (Ki) worked out at 7.1 ± 0.47 nM at human mu opioid receptor (setting [3]), 0.79 ± 0.02 nM in experiment [1] (setting [4]) and 230 ± 21 nM in experiment [2] (setting [5]). In experiment [1] (Table 1), the “Selectivity δ:κ” value was determined as 290. The “Selectivity μ:κ” value in experiment [1] (Table 1) came to 9.0. For the same compound, at kappa receptor, the “Efficacy (agonist, partial agonist, antagonist) at κ receptor” value is on record as “κ agonist”. In addition, the “Efficacy (agonist, partial agonist, antagonist) at μ receptor” value at mu receptor is “weak agonist and antagonist activity”.

Regarding `C#CCN1CC[C@]23CCCC[C@H]2[C@H]1C(=O)c1ccc(O)cc13` [Compound 73, 3-Hydroxy-10-keto-N-propargylmorphinan], the inhibition constant (Ki) at human mu opioid receptor was 190 ± 4.4 nM; in experiment [1] it was 60 ± 1.7 nM; in experiment [2] (setting [7]), 2300 ± 190 nM. For the same compound, the “Selectivity δ:κ” value in experiment [1] (Table 2) was determined as 38. In experiment [1] (Table 2), the “Selectivity μ:κ” value is 3.2.

Regarding `O=C1c2ccc(O)cc2[C@@]23CCCC[C@H]2[C@@H]1N(CC1CCC1)CC3` [Compound 74, 3-Hydroxy-10-keto-N-cyclobutylmethylmorphinan], the inhibition constant Ki on human mu opioid receptor (read-out: Ki (nM) ± SE [3H]DAMGO (μ), Table 2, CHO membranes, 25° C., mean ± SEM of three experiments in triplicate) stood at 3.3 ± 0.26 nM; in experiment [1] (Table 2, CHO membranes, 25° C., mean ± SEM of three experiments in triplicate, read-out: Ki (nM) ± SE [3H]U69,593 (κ)), 0.48 ± 0.027 nM; in experiment [2] (setting [7]) it was 260 ± 55 nM. The “Selectivity δ:κ” value in experiment [1] (Table 2) came out at 540. In experiment [1] (Table 2), the “Selectivity μ:κ” value amounted to 6.9.

Take `O=C1c2ccc(O)cc2[C@@]23CCCC[C@H]2[C@@H]1N(CCCF)CC3` [Compound 75, 3-Hydroxy-10-keto-N-(3-fluoropropyl)morphinan]: the values for the inhibition constant Ki (on human mu opioid receptor; in experiment [2] (setting [7])) were 20 ± 4.8 nM and 690 ± 171 nM, respectively.

Turning to `COCCN1CC[C@]23CCCC[C@H]2[C@H]1C(=O)c1ccc(O)cc13` [Compound 76, 3-Hydroxy-10-keto-N-(2-methoxyethyl)morphinan], the inhibitory constant (Ki) at human mu opioid receptor is 90 ± 10 nM; in experiment [1] it was 17 ± 0.6 nM; in experiment [2], more than 10000 nM. Besides, in experiment [1] (Table 2), the “Selectivity δ:κ” value was 590. Further, the “Selectivity μ:κ” value in experiment [1] (Table 2) came out at 5.3.

With `O=C1c2ccc(O)cc2[C@@]23CCCC[C@H]2[C@@H]1N(CCc1ccccc1)CC3` [Compound 77, 3-Hydroxy-10-keto-N-(2-phenylethyl)morphinan], the figures for the Ki (on human mu opioid receptor; in experiment [1]; in experiment [2] (setting [7])) were 0.63 ± 0.07 nM, 7.7 ± 0.19 nM and 9.7 ± 0.34 nM, respectively. Besides, the “Selectivity δ:κ” value in experiment [1] (Table 2) was found to be 1.3. In addition, the “Selectivity μ:κ” value in experiment [1] (Table 2) stood at 0.08.
